Laboratory results: patent US9878054B2, “Polypeptide and lipophilic moiety conjugate compositions, formulations, and uses related thereto” (Tufts Medical Center, Inc., priority 2012, dated 2018)
Where a SMILES comes first, the peptide text is derived from it. The star is where a group is joined. Palmitoyl = CCCCCCCCCCCCCCCC(=O)*

How the values were obtained:
[1] = Bleeding time, platelet counts and hematocrit in baboons; type: in vivo; conditions: baboon; all doses tested (1-6 mg/kg)
Method: Whether PZ-128 had any adverse effects on hemostasis or coagulation indices in baboons and monkeys was evaluated. At all doses tested (1-6 mg/kg), PZ-128 micelles had no effect on bleeding time, platelet counts or hematocrit in baboons (Table 2).
(§1) Non-terminal thrombosis and platelet aggregation studies were performed on 12 healthy male baboons (Papio anubis) weighing 9-12 kg at the Oregon National Primate Research Center (ONPRC). […] Whole blood (10 ml) was collected into PPACK at a final concentration of 100 μg/ml just prior to infusion (baseline) and 15 min to 24 h after the PZ-128 micelle infusion was terminated. Platelet counts and hematocrit were measured immediately. PRP was prepared from whole blood and platelet aggregation performed as described above. Bleeding time (BT) measurements were performed on the shaved volar surface of the forearm using the standard template method.

[2] = system: guinea pig platelets (ADP); assay: Guinea pig ex vivo platelet aggregation to ADP after iv infusion; type: in vivo; conditions: 3 or 6 mg/kg iv, 20 μM ADP
Method: PZ-128 or 5% dextrose USP vehicle was infused for 10 min into the jugular vein of male and female guinea pigs (0.55-0.65 kg). A-C, At the 15 min time point, whole blood was collected by cardiac puncture in 100 μg/ml PPACK/4% Na-citrate (final) anti-coagulant and platelet rich plasma (PRP) prepared and aggregation measurements were performed. […] B-C, PRP obtained at the 15 min time point after infusion with vehicle, 3 mg/kg PZ-128 or 6 mg/kg PZ128 was challenged with 2.5 μM SFLLRN, 20 μM ADP or 20 μM thromboxane mimetic, U46119. Individual data points (n=3) are overlayed on bar graphs depicting mean±SD. […] Data in B-D were analyzed by the non-parametric Kruskal-Wallis test with the Dunn's multiple pairwise comparison post-test.
PZ-128 micelles were delivered by internal jugular vein infusions over 10 min.
Guinea pigs weighing 600-650 g were used for platelet aggregation experiments. PZ-128 micelles (3 or 6 mg/kg) were administered by a 10 min intravenous infusion, and blood was collected by cardiac puncture into sodium citrate (0.4% vol/vol final) 5 minutes after cessation of the infusion. PRP was prepared and PPACK added to a final concentration of 100 μg/ml. PRP was calcified with 2.5 mM CaCl2 and aggregation was performed as described above.

[3] = PT, aPTT, bleeding and plasma levels in cynomolgus monkeys after daily iv infusions; type: in vivo; conditions: cynomolgus monkey
Method: PZ-128 micelles were also administered daily for 4 days to adult male and female cynomolgus monkeys with 1 h iv infusions of 3 mg/kg, 10 mg/kg and 30 mg/kg PZ-128. Coagulation parameters prothrombin time (PT) and activated partial thromboplastin time (aPTT) were unaffected in all monkeys at 3-30 mg/kg PZ-128 at either day 1 and day 5 as compared to baseline or vehicle-treated animals (Table 2).
PZ-128 micelles (0, 3, 10 or 30 mg/kg) were administered intravenously to 2.5-4.5 kg male and female cynomolgus monkeys by infusion over 1 h at MPI Laboratories (Mattawan, Mich.). Peripheral venous blood was collected from cynomolgus monkeys into K3EDTA anticoagulant at baseline (Day −8) and at two time points (Day 1 and Day 5) after daily 1-h intravenous PZ-128 micelle infusions on days 1-4. PT and aPTT were analyzed immediately on a MLA-800 coagulation analyzer.

[4] = system: PAR4; assay: Baboon ex vivo platelet aggregation, AYPGKF (PAR4); type: in vivo; conditions: any dose, any time point
Method: (§2) A-C, Male baboons (10-12 kg) were administered 1, 3 or 6 mg/kg PZ-128, or 5% dextrose USP vehicle by iv infusion and blood collected into 100 μg/ml PPACK anticoagulant at 0, 1, 2, 6, or 24 h time points. Light transmission platelet aggregometry was performed with platelet rich plasma with the indicated agonists (SFLLRN for PAR1, AYPGKF for PAR4 and ADP for P2Y12 and P2Y1). Data are reported as mean±SD (n=3-7) relative to time 0 controls (0%) and were analyzed by repeated measures one-way ANOVA with Bonferroni post-test correction; *P<0.05, **P<0.01 relative to time 0. Global P values were >0.05 for 1 mg/kg, 0.004 for 3 mg/kg, <0.0001 for 6 mg/kg. D, Pharmacokinetics of 3 and 6 mg/kg 45-min iv infusions of PZ-128 in male baboons. Plasma PZ-128 levels were measured by LC/MS/MS at 9 sequential time points: baseline, 15 min, 30 min, 1 h, 2 h, 4 h, 8 h, 24 h and 48 h after the start of infusion. Open symbols indicated plasma concentrations that were under the measurement threshold (5 ng/ml).
(§3) The anti-platelet effects of PZ-128 micelles were next examined in baboons at various time points after receiving different doses of intravenous infusions. […]
(§4) Non-terminal thrombosis and platelet aggregation studies were performed on 12 healthy male baboons (Papio anubis) weighing 9-12 kg at the Oregon National Primate Research Center (ONPRC). […] Platelet counts and hematocrit were measured immediately. […]

[5] = system: human platelets (thrombin); assay: Thrombin-induced aggregation of human platelets; type: cell-based; conditions: 3 μM compound
Method: A, Depiction of the mechanism of action of the cell-penetrating PZ-128 pepducin compound targeting the third intracellular loop (red) of PAR1. B, The NMR structure of PZ-128 was determined by simulated annealing methods using 210 distance restraints and included restraints to the proximal 3 hydrocarbons of the lipid. […] D, PZ-128 inhibits PAR1-dependent platelet aggregation. Gel filtered human platelets were treated with various concentrations of PZ-128 and then challenged with the PAR1 agonist SFLLRN (2.5 μM), 20 μM ADP, 200 μM AYPGKF or 1 mg/ml Ristocetin. E, Human platelets were treated with 3 μM PZ-128, 3 μM RWJ-56110, or 5% dextrose vehicle before the addition of various concentrations of thrombin (n=3-5).
PZ-128 also markedly right-shifted thrombin-induced aggregation by 5-fold. By comparison, the small molecule RWJ-56110 which antagonizes PAR1 at the extracellular ligand-binding site gave a 2-fold right shift in the thrombin activation curve of human platelets.
Whole blood from healthy donors was collected into a 30 ml syringe containing sodium citrate (0.4% vol/vol final). Platelets were isolated from platelet rich plasma (PRP) using Sepharose 2B columns in modified PIPES buffer.

[6] = system: PAR1; assay: Baboon ex vivo platelet aggregation, SFLLRN (PAR1); type: in vivo
Method: as §2
The anti-platelet effects of PZ-128 micelles were next examined in baboons at various time points after receiving different doses of intravenous infusions. […] At the lowest dose tested, 1 mg/kg PZ-128 micelles ([…]), PAR1-dependent aggregation (5 μM SFLLRN) was inhibited by only 5-10% at the 1-2 h time points (FIG. 3A). […] As a further assessment of in vivo specificity, PZ-128 gave no inhibition at any dose of either the ADP or AYPGKF (PAR4) responses at any time point.
as §1

[7] = system: P2Y12 and P2Y1; assay: Baboon ex vivo platelet aggregation, ADP; type: in vivo; conditions: any dose, any time point
Method: as §2, §3, §4

[8] = Pharmacokinetics of PZ-128 in baboon plasma (LC/MS/MS); type: in vivo
Method: as §2
The maximal plasma concentration of PZ-128 was 14 μmol/L at the 6 mg/kg dose and 5.6 μmol/L for the 3 mg/kg dose. […] The pharmacokinetic and anti-platelet pharmacodynamic properties of PZ-128 micelles indicate that this lipopeptide reaches maximal activity during and immediately after intravenous infusion and is completely eliminated by the next day.
Various doses of PZ-128 micelles were infused intravenously for 45 min to baboons. At sequential time points, whole blood was drawn into 3.2% citrate buffer and immediately centrifuged at 3000 rpm for 10 min. Platelet-poor plasma (PPP) samples were harvested and stored at −80° C. PZ-128 drug levels in PPP samples were determined was using an API 4000 LC/MS/MS system (Agilux Laboratories, Worcester, Mass.).

[9] = 3-30 mg/kg, 1 h iv infusion daily for 4 days, day 1 and day 5

CCCCCCCCCCCCCCCC(=O)N[C@@H](CCCCN)C(=O)N[C@@H](CCCCN)C(=O)N[C@@H](CO)C(=O)N[C@@H](CCCNC(=N)N)C(=O)N[C@@H](C)C(=O)N[C@@H](CC(C)C)C(=O)N[C@@H](Cc1ccccc1)C(N)=O [PZ-128, palmitate-KKSRALF-NH2] (Palmitoyl-KKSRALF-NH2)
Effect on bleeding time, platelet counts or hematocrit [1]: no effect
Effect on ex vivo aggregation to ADP [2]: no effect
Cmax ([3]; both sexes, plasma, up to 30 mg/kg iv infusion): > 200 µM
Spontaneous, venous access, or retinal bleeding ([3]; 3-30 mg/kg daily iv): No spontaneous, venous access, or retinal bleeding was observed
Activated partial thromboplastin time (aPTT) [3, 9]: unaffected
Prothrombin time (PT) [3, 9]: unaffected
Inhibition of AYPGKF (PAR4) response ex vivo [4]: no inhibition
Right shift of thrombin-induced aggregation curve [5]: 5 fold
Inhibition of PAR1-dependent ex vivo aggregation ([6]; 1 mg/kg, 30 min infusion, 5 μM SFLLRN, 1-2 h): 5-10%
Reversibility: inhibition with higher concentration of SFLLRN agonist ([6]; 3 mg/kg and 6 mg/kg, 10 μM SFLLRN): loss of inhibition
Inhibition of PAR1-dependent ex vivo aggregation ([6]; 3 mg/kg, 30 min infusion, 1 h and 2 h): 85%
Inhibition of PAR1-dependent ex vivo aggregation ([6]; 3 mg/kg, 24 h): not appreciably inhibited
Inhibition of PAR1-dependent ex vivo aggregation ([6]; 6 mg/kg, 45 min infusion, 1-2 h): 100%
Inhibition of PAR1-dependent ex vivo aggregation ([6]; 6 mg/kg, 45 min infusion, 6 h): 90%
PAR1-dependent ex vivo aggregation, recovery ([6]; 6 mg/kg, 24 h): completely recovered
Inhibition of ADP response ex vivo [7]: no inhibition
Plasma half life ([8]; 3 and 6 mg/kg iv infusion): 50 to 80 min
Plasma level at late time points ([8]; 24-48 h, measurement threshold 5 ng/ml): not detectable
Clearance from plasma ([8]; by 8 h): nearly completely cleared
half-life ([8]; male, plasma, iv, 3 and 6 mg/kg iv infusion): 50 to 81 min
